Laboratory results taken from ChEMBL document CHEMBL5113400, “Design, synthesis, and biological evaluation of trizole-based heteroaromatic derivatives as Bcr-Abl kinase inhibitors” (Eur J Med Chem, 2022).

Columns and labels:
K562/Adr [1] = assay: Antiproliferative activity against human Adriamycin-resistant K562/Adr cells assessed as inhibition of cell growth at 30 uM incubated for 48 hrs by MTT assay; format: functional
BaF3 = assay: Antiproliferative activity against mouse BaF3 cells expressing Bcr-Abl T315I mutant assessed as inhibition of cell growth at 30 uM incubated for 72 hrs by CellTiter-Glo luminescent assay; format: functional
Bcr/Abl fusion protein [2] = target: Bcr/Abl fusion protein (Homo sapiens, UniProt P00519); assay: Inhibition of wild type Bcr-Abl (unknown origin) incubated for 1 hr in presence of ATP by ADP-Glo kinase assay; format: protein assay
Bcr/Abl fusion protein [3] = target: Bcr/Abl fusion protein (Homo sapiens, UniProt P00519, T315I); assay: Inhibition of Bcr-Abl T315I mutant (unknown origin) incubated for 1 hr in presence of ATP by ADP-Glo kinase assay; format: protein assay
K562 = assay: Antiproliferative activity against human K562 cells assessed as inhibition of cell growth incubated for 48 hrs by MTT assay; format: functional, cell-based; conditions: K562, 48 h
K562/Adr [4] = assay: Antiproliferative activity against human Adriamycin-resistant K562/Adr cells assessed as inhibition of cell growth incubated for 48 hrs by MTT assay; format: functional, cell-based

SMILES	inhibition at 30 µM (K562/Adr [1]) [%]	inhibition at 30 µM (BaF3) [%]	IC50 (Bcr/Abl fusion protein [2]) [nM]	IC50 (Bcr/Abl fusion protein [3]) [nM]	IC50 (K562) [nM]	IC50 (K562/Adr [4]) [nM]
CC(=O)Nc1ccc(-c2cn([C@@H]3CN[C@H](C(=O)Nc4ccc(Cl)c(C(F)(F)F)c4)C3)nn2)cn1	33.6	26.5	3.45	127	8980	
CC(=O)Nc1n[nH]c2cc(-c3cn([C@@H]4CN[C@H](C(=O)Nc5ccc(Br)cc5)C4)nn3)ccc12		21.8	5.85	343	3830	1000
Nc1nc2ccc(-c3cn([C@@H]4CN[C@H](C(=O)Nc5ccc(Br)cc5)C4)nn3)nc2s1	35.9	27.5	27.1	178	24400	
CC(C)(C)C(=O)Nc1ccc(-c2cn([C@@H]3CN[C@H](C(=O)Nc4ccc(Cl)c(C(F)(F)F)c4)C3)nn2)cn1	19.1		41.5	3440	43800	
Nc1n[nH]c2cc(-c3cn([C@@H]4CN[C@H](C(=O)Nc5ccc(Cl)cc5Cl)C4)nn3)ccc12	29.4	19.3	8.6	3670	28400	
O=C(Nc1nc2ccc(-c3cn([C@@H]4CN[C@H](C(=O)Nc5ccc(F)c(F)c5)C4)nn3)nc2s1)C1CC1	29.5		30.1	1340	40700	
C=CC(=O)Nc1ccc(-c2cn([C@@H]3CN[C@H](C(=O)Nc4ccc(Cl)c(C(F)(F)F)c4)C3)nn2)cn1		26	9.26	140	3860	80400
CC(C)(C)OC(=O)N1C[C@@H](n2cc(-c3ccc4nc(N)sc4n3)nn2)C[C@H]1C(=O)Nc1ccc(F)c(F)c1		16.8	17.4	487	26400	63800
O=C(NC1CC1)c1cncc(-c2cn([C@@H]3CN[C@H](C(=O)Nc4ccc(Cl)c(C(F)(F)F)c4)C3)nn2)c1		24.6	1.94	31.5	820	175000
CN(C)CCNC(=O)c1cncc(-c2cn([C@@H]3CN[C@H](C(=O)Nc4ccc(Cl)c(C(F)(F)F)c4)C3)nn2)c1	14.5	21.8	29.2	349	21000	
CC(C)(C)OC(=O)N1C[C@@H](n2cc(-c3ccc4nc(N)sc4n3)nn2)C[C@H]1C(=O)Nc1ccc(Cl)cc1Cl	28.3	86.7	14.7	410	8940	
CC(=O)Nc1nc2ccc(-c3cn([C@@H]4CN[C@H](C(=O)Nc5ccc(Cl)cc5Cl)C4)nn3)nc2s1	36.1	39.5	4.8	388	9670	
O=C(Nc1ccc(Cl)c(C(F)(F)F)c1)[C@@H]1C[C@H](n2cc(-c3cncc(C(=O)N4CCOCC4)c3)nn2)CN1	25.6		60.1	801	28800	
CC(C)(C)OC(=O)N1C[C@@H](n2cc(-c3ccc4c(N)n[nH]c4c3)nn2)C[C@H]1C(=O)Nc1ccc(Cl)cc1Cl	25.6	28.7	60.6	1880	12200	
CC(=O)Nc1nc2ccc(-c3cn([C@@H]4CN[C@H](C(=O)Nc5ccc(Cl)c(C(F)(F)F)c5)C4)nn3)nc2s1		44.8	23.5	59.6	10000	
Nc1nc2ccc(-c3cn([C@@H]4CN[C@H](C(=O)Nc5ccc(Cl)c(C(F)(F)F)c5)C4)nn3)nc2s1			15.6	24.7	26200	187000
O=C(Nc1nc2ccc(-c3cn([C@@H]4CN[C@H](C(=O)Nc5ccc(Cl)c(C(F)(F)F)c5)C4)nn3)nc2s1)C1CC1	10.4	78.8	24.6	110	16200	
Nc1nc2ccc(-c3cn([C@@H]4CN[C@H](C(=O)Nc5ccc(Cl)cc5Cl)C4)nn3)nc2s1	42.2	19.5	9.45	118	24500	
Nc1nc2ccc(-c3cn([C@@H]4CN[C@H](C(=O)Nc5ccc(F)c(F)c5)C4)nn3)nc2s1	27.4		128	1590	33200	
